From patent US20210115104A1, “AMYLIN ANALOGUES” (Zealand Pharma A/S, priority 2015, published 2021)
*1 amine or outer side, *2 acyl side, *3 side chain or, on linkers, in order; H or OH if unused. Where a SMILES comes first, the peptide text is derived from it. Bridges are numbered along the chain shown (N, C = ends). [ ]: non-standard residue; d: D form. The star is where a group is joined. C20 diacid = O=C(O)CCCCCCCCCCCCCCCCCCC(=O)*; γGlu = O=C(O)[C@H](CCC(=O)[*:2])N[*:1]; Hyp = O=C(O)[C@@H]1C[C@@H](O)CN1; NMeI = CC[C@H](C)[C@H](NC)C(=O)O; Aad = N[C@@H](CCCC(=O)O)C(=O)O; Sar = CNCC(=O)O

Experiments:
[1] = target: T1, human calcitonin receptor (hCTR2) (Homo sapiens, UniProt P30988); assay: hCTR2 cAMP assay (AlphaScreen) in COS7 cells; assay type: cell-based; conditions: cAMP induction, COS7 cells expressing hCTR2; Table 1; read-out: hCTR2 EC50
T1 construct: expressed in transfected cells
T1 sequence (P30988 25-474): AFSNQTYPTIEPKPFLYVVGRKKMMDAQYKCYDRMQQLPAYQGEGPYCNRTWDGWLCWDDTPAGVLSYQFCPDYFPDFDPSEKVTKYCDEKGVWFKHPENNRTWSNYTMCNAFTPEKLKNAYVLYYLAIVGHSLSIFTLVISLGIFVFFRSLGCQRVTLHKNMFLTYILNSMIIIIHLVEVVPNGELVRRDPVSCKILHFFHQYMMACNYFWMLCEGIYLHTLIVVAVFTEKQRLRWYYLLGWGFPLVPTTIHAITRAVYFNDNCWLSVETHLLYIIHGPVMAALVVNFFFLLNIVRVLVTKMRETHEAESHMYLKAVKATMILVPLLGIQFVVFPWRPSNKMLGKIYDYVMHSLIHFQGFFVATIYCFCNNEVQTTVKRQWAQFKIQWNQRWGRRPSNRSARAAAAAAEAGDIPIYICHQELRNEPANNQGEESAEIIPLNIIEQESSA
Method in brief: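 cAMP induction, read by AlphaScreen after lysis, gives EC50 values via 4PL curve fitting. Peptides were applied at rising concentrations for 15 min at 37 °C, with IBMX and 0.1% casein in HEPES-buffered Tyrode pH 7.4, to COS7 cells (no endogenous RAMPs) stably expressing human CTR2.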

[2] = Assessment of chemical stability (RP-HPLC normalized purity); assay type: physicochemical; conditions: for Normalized purity after 7 days, 40° C., pH 4: pH 4, 0.2 mg/ml; for Normalized purity after 7 days, 40° C., pH 4 / Normalized purity after 7 days, 40° C., pH 6 / Normalized purity after 7 days, 40° C., pH 7.5 / Normalized purity after 7 days, 40° C., pH 9: Table 1; for Normalized purity after 7 days, 40° C., pH 6: pH 6, 0.2 mg/ml; for Normalized purity after 7 days, 40° C., pH 7.5: pH 7.5, 0.2 mg/ml; for Normalized purity after 7 days, 40° C., pH 9: pH 9, 0.2 mg/ml; for Normalized purity pH 4 (Table 5): pH 4, repeat of Example 6 for pairs with/without Asn-Asn at 21-22; for Normalized purity pH 6 (Table 5): pH 6, repeat of Example 6 for pairs with/without Asn-Asn at 21-22; for Normalized purity pH 7.5 (Table 5): pH 7.5, repeat of Example 6 for pairs with/without Asn-Asn at 21-22; for Normalized purity pH 9 (Table 5): pH 9, repeat of Example 6 for pairs with/without Asn-Asn at 21-22
Method in brief: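 Purity after 7 days at 40° C is expressed relative to T=0 (set to 100) for each pH. Samples at 0.2 mg/ml, pH 4, 6, 7.5 or 9, analyzed by RP-HPLC with UV 220 nm on C8 (ammonium formate) or C18 (TFA) gradients.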

[3] = target: T2, human amylin receptor 3 (hAMYR3), hCTR2 co-expressed with hRAMP3 (Homo sapiens, UniProt O60896+P30988); assay: hAMYR3 cAMP assay (AlphaScreen) in COS7 cells; assay type: cell-based; conditions: cAMP induction, COS7 cells expressing hAMYR3; Table 1; read-out: hAMYR3 EC50
T2 construct: expressed in transfected cells
T2 sequence (P30988 25-474): T1 sequence (P30988 25-474)
T2 sequence (O60896 24-148 partner): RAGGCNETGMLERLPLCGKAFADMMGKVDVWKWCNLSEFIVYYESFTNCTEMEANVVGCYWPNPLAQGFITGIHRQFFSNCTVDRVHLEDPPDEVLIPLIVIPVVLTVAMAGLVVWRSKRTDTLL
Method in brief: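 EC50 values derive from 4PL curve fits of cAMP (AlphaScreen) in lysates of RAMP-naive COS7 cells stably carrying hCTR2 plus hRAMP3. Peptide dilution series were applied for 15 min at 37 °C in pH 7.4 Tyrode buffer containing 100 µM IBMX and 0.1% casein.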

Compound | EC50 [1] | Normalized purity after 7 days, 40° C., pH 4 [2] | Normalized purity after 7 days, 40° C., pH 6 [2] | Normalized purity after 7 days, 40° C., pH 7.5 [2] | Normalized purity after 7 days, 40° C., pH 9 [2] | EC50 [3] | Normalized purity pH 4 (Table 5) [2] | Normalized purity pH 6 (Table 5) [2] | Normalized purity pH 7.5 (Table 5) [2] | Normalized purity pH 9 (Table 5) [2]
CC[C@H](C)[C@@H](C(=O)N[C@@H](CC(C)C)C(=O)N[C@@H](CO)C(=O)N[C@@H](CO)C(=O)N[C@H](C(=O)N[C@@H](CCC(=O)O)C(=O)N[C@H](C(=O)NCC(=O)N[C@@H](CO)C(=O)N[C@@H](CO)C(=O)N[C@H](C(=O)N1CCC[C@H]1C(N)=O)[C@@H](C)O)C(C)C)[C@@H](C)O)N(C)C(=O)[C@H](C)NC(=O)CN(C)C(=O)[C@H](Cc1ccccc1)NC(=O)[C@H](CO)NC(=O)[C@H](CO)NC(=O)[C@H](CCCNC(=N)N)NC(=O)[C@H](CCC(=O)O)NC(=O)[C@H](CC(C)C)NC(=O)[C@H](Cc1ccccc1)NC(=O)[C@H](Cc1c[nH]cn1)NC(=O)[C@H](C)NC(=O)[C@H](CC(C)C)NC(=O)[C@H](CCCNC(=N)N)NC(=O)[C@H](CCC(=O)O)NC(=O)[C@@H](NC(=O)[C@H](C)NC(=O)[C@@H]1CSSC[C@H](NC(=O)[C@H](CCCNC(=N)N)NC(=O)CC[C@H](NC(=O)CCCCCCCCCCCCCCCCCCC(=O)O)C(=O)O)C(=O)NCC(=O)N[C@@H]([C@@H](C)O)C(=O)N[C@@H](C)C(=O)N[C@@H]([C@@H](C)O)C(=O)N1)[C@@H](C)O [Compound 36, [19CD]-isoGlu-R-C( )-GTAT-C( )-ATERLAHFLERSSF-Gly(Me)-A-Ile(Me)-LSSTEVGSSTP-NH2] ({C20 diacid-γGlu}-RCGTATCATERLAHFLERSSF[Sar]A[NMeI]LSSTEVGSSTP-NH2; disulfide 2-7) | 0.21 nM | A (A = >90%) | A (A = >90%) | B (B = 70-90%) | B (B = 70-90%) | 0.36 nM |  |  |  | 
CC[C@H](C)[C@@H](C(=O)N[C@@H](CC(C)C)C(=O)N[C@@H](CO)C(=O)N[C@@H](CO)C(=O)N[C@H](C(=O)N[C@@H](CCC(=O)O)C(=O)N[C@H](C(=O)NCC(=O)N[C@@H](CO)C(=O)N[C@@H](CC(N)=O)C(=O)N[C@H](C(=O)N1C[C@H](O)C[C@H]1C(N)=O)[C@@H](C)O)C(C)C)[C@@H](C)O)N(C)C(=O)[C@H](C)NC(=O)CN(C)C(=O)[C@H](Cc1ccccc1)NC(=O)[C@H](CO)NC(=O)[C@H](CO)NC(=O)[C@H](CCCNC(=N)N)NC(=O)[C@H](CCC(N)=O)NC(=O)[C@H](CC(C)C)NC(=O)[C@H](Cc1ccccc1)NC(=O)[C@H](CC(=O)O)NC(=O)[C@H](C)NC(=O)[C@H](CC(C)C)NC(=O)[C@H](CCCNC(=N)N)NC(=O)[C@H](CCC(N)=O)NC(=O)[C@@H](NC(=O)[C@H](C)NC(=O)[C@@H]1CSSC[C@H](NC(=O)[C@H](CCCNC(=N)N)NC(=O)CC[C@H](NC(=O)CCCCCCCCCCCCCCCCCCC(=O)O)C(=O)O)C(=O)N[C@@H](CC(N)=O)C(=O)N[C@@H]([C@@H](C)O)C(=O)N[C@@H](C)C(=O)N[C@@H]([C@@H](C)O)C(=O)N1)[C@@H](C)O [Compound 49, [19CD]-isoGlu-R-C( )-NTAT-C( )-ATQRLADFLQRSSF-Gly(Me)-A-Ile(Me)-LSSTEVGSNT-Hyp-NH2] ({C20 diacid-γGlu}-RCNTATCATQRLADFLQRSSF[Sar]A[NMeI]LSSTEVGSNT[Hyp]-NH2; disulfide 2-7) | 0.06 nM | A (A = >90%) | A (A = >90%) | A (A = >90%) | B (B = 70-90%) | 0.15 nM |  |  |  | 
CC[C@H](C)[C@@H](C(=O)N[C@@H](CC(C)C)C(=O)N[C@@H](CO)C(=O)N[C@@H](CO)C(=O)N[C@H](C(=O)N[C@@H](CCC(=O)O)C(=O)N[C@H](C(=O)NCC(=O)N[C@@H](CO)C(=O)N[C@@H](CC(N)=O)C(=O)N[C@H](C(=O)N1C[C@H](O)C[C@H]1C(N)=O)[C@@H](C)O)C(C)C)[C@@H](C)O)N(C)C(=O)[C@H](C)NC(=O)CN(C)C(=O)[C@H](Cc1ccccc1)NC(=O)[C@H](CO)NC(=O)[C@H](CO)NC(=O)[C@H](CCCNC(=N)N)NC(=O)[C@H](CCC(N)=O)NC(=O)[C@H](CC(C)C)NC(=O)[C@H](Cc1ccccc1)NC(=O)[C@H](CCCC(=O)O)NC(=O)[C@H](C)NC(=O)[C@H](CC(C)C)NC(=O)[C@H](CCCNC(=N)N)NC(=O)[C@H](CCC(=O)O)NC(=O)[C@@H](NC(=O)[C@H](C)NC(=O)[C@@H]1CSSC[C@H](NC(=O)[C@H](CCCNC(=N)N)NC(=O)CC[C@H](NC(=O)CCCCCCCCCCCCCCCCCCC(=O)O)C(=O)O)C(=O)NCC(=O)N[C@@H]([C@@H](C)O)C(=O)N[C@@H](C)C(=O)N[C@@H]([C@@H](C)O)C(=O)N1)[C@@H](C)O [Compound 55, [19CD]-isoGlu-R-C( )-GTAT-C( )-ATERLA-Aad-FLQRSSF-Gly(Me)-A-Ile(Me)-LSSTEVGSNT-Hyp-NH2] ({C20 diacid-γGlu}-RCGTATCATERLA[Aad]FLQRSSF[Sar]A[NMeI]LSSTEVGSNT[Hyp]-NH2; disulfide 2-7) | 0.11 nM | A (A = >90%) | A (A = >90%) | A (A = >90%) | B (B = 70-90%) | 0.08 nM | A (A = >90%) | A (A = >90%) | A (A = >90%) | B (B = 70-90%)
CC[C@H](C)[C@@H](C(=O)N[C@@H](CC(C)C)C(=O)N[C@@H](CO)C(=O)N[C@@H](CO)C(=O)N[C@H](C(=O)N[C@@H](CCC(=O)O)C(=O)N[C@H](C(=O)NCC(=O)N[C@@H](CO)C(=O)N[C@@H](CC(N)=O)C(=O)N[C@H](C(=O)N1C[C@H](O)C[C@H]1C(N)=O)[C@@H](C)O)C(C)C)[C@@H](C)O)N(C)C(=O)[C@H](C)NC(=O)CN(C)C(=O)[C@H](Cc1ccccc1)NC(=O)[C@H](CO)NC(=O)[C@H](CO)NC(=O)[C@H](CCCNC(=N)N)NC(=O)[C@H](CCC(N)=O)NC(=O)[C@H](CC(C)C)NC(=O)[C@H](Cc1ccccc1)NC(=O)[C@H](Cc1c[nH]cn1)NC(=O)[C@H](C)NC(=O)[C@H](CC(C)C)NC(=O)[C@H](CCCNC(=N)N)NC(=O)[C@H](CCC(=O)O)NC(=O)[C@@H](NC(=O)[C@H](C)NC(=O)[C@@H]1CSSC[C@H](NC(=O)[C@H](CCCNC(=N)N)NC(=O)CC[C@H](NC(=O)CCCCCCCCCCCCCCCCCCC(=O)O)C(=O)O)C(=O)N[C@@H](CCC(N)=O)C(=O)N[C@@H]([C@@H](C)O)C(=O)N[C@@H](C)C(=O)N[C@@H]([C@@H](C)O)C(=O)N1)[C@@H](C)O [Compound 57, [19CD]-isoGlu-R-C( )-QTAT-C( )-ATERLAHFLQRSSF-Gly(Me)-A-Ile(Me)-LSSTEVGSNT-Hyp-NH2] ({C20 diacid-γGlu}-RCQTATCATERLAHFLQRSSF[Sar]A[NMeI]LSSTEVGSNT[Hyp]-NH2; disulfide 2-7) | 0.08 nM | A (A = >90%) | A (A = >90%) | A (A = >90%) | A (A = >90%) | 0.11 nM | A (A = >90%) | A (A = >90%) | A (A = >90%) | B (B = 70-90%)
